Read-outs that look alike come from different tables or passages of the source.
Assays:
gastric acid secretion = settings: experimental tests on animals and humans; prior art; cited from earlier work
gastric secretion = experiment: Activity on gastric secretion "in vivo" (volume and total acidity of gastric juice after pylorus tieing, Shay); design: species or system male Wistar rats; settings: for ED50 / change in vivo at 20 mg/kg: Rattus norvegicus, po; for ED50: read-out: DE50 in rat calculated on total acidity (mEq/4 hours); for Total acidity gastric juice secretion / Volume gastric juice secretion / change in vivo at 20 mg/kg: 20 mg/kg oral; for ability to reduce the gastric acid secretion (in words): volume and total acidity of gastric juice
Description: (§1) The preparations were a solution of the substances in 2.5% citric acid for the "in vitro" test and 5% citric acid for the "in vivo" test respectively. Citric acid was diluted in normal physiologic saline at neutral pH.
The ability of the compounds according to the present invention to inhibit the gastric secretion was studied "in vivo" both by evaluating the volume reduction of gastric juice, and by measuring the total acidity of same after administration of the substances under test according to the Takeda method (see the aforementioned literature).
To this end, tests have been made on male Wistar rats of an average weight of 200 g. The animals, 10 for each substance, were placed into individual cages provided with ground grating in order to avoid coprophagy, without food but with free access to water for 24 hours before test. […] Four hours later the animals were sacrificed and the gastric juice was collected, of which the volume expressed in ml and the total acidity expressed in mEq was measured. The gastric juice ([…] ) was titrated with 0.1N NaOH to pH 7 to determine the acid concentration. The total acidity was then calculated as the product of the total volume of gastric juice by the acid concentration.

histamine H2 receptors [1] = molecular target: T1, histamine H2 receptors (Cavia porcellus, UniProt P47747); settings: Daly M. J., Br. J. Pharmac., 72, 49, 1982; cited from earlier work
T1 construct: tests on insulated atrium auricolas of Guinea pig heart; from tissue; host or cells: isolated guinea pig heart atrium
T1 sequence (P47747 whole entry): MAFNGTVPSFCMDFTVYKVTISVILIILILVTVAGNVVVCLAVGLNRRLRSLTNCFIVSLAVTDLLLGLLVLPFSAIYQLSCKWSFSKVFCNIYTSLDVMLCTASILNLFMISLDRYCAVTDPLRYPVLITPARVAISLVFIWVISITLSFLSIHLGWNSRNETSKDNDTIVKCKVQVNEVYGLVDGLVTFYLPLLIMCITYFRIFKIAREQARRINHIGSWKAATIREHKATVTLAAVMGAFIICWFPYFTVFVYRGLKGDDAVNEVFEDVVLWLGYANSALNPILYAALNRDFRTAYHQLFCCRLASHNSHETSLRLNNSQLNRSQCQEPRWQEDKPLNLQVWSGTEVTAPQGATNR

histamine H2 receptors [2] = molecular target: T1, histamine H2 receptors; experiment: Antagonistic activity to the histamine H2 receptors "in vitro" on insulated atrium auricolas of Guinea pig heart; settings: for inhibition at 10 µM / inhibition at 1 µM / inhibition at 0.1 µM: guinea pig, 0.5 h, read-out: Antagonizing activity to histamine H2 receptors; for inhibition at 10 µM: compound 1·10^-5 M/L; for inhibition at 1 µM: compound 1·10^-6 M/L; for inhibition at 0.1 µM: compound 1·10^-7 M/L; for antagonistic action to the histamine H2 receptors (in words): in vitro
Description: as §1
This activity was evaluated "in vitro" by carrying out tests on insulated atrium auricolas of Guinea pig heart. […] Metering was carried out by placing the preparation into a vessel containing a Ringer-Locke solution wherein pure oxygen was bubbling, at a temperature of 37° C. A response of the organ "in vitro" was first established at cumulative histamine doses of 2.5.10^-7, 5.10^-7, 10^-6, 5.10^-6, 10^-5 M/L. After obtaining two constant lines with histamine at a time interval of one hour from one another, the substances under test were added to the bath and after a 30 minutes contact with the preparation, a new histamine response line in the presence of the substance under test was drawn. The activity was tested at various concentrations of the new compounds (10^-5, 10^-6, 10^-7 and in one case 10^-8 M/L).

in vivo = settings: po; for LD50 at 360 h: mouse; for LD50: rat
Excerpt: The animals were kept under observation by checking mortality and possible pain signs for 15 days from start of test.

[3] = 6 hours before pilorus tieing, read-out: Total acidity gastric juice secretion, Variation %
[4] = 6 hours before pilorus tieing, read-out: Volume gastric juice secretion, Variation %
[5] = 12 hours before pilorus tieing, read-out: Total acidity gastric juice secretion, Variation %
[6] = 12 hours before pilorus tieing, read-out: Volume gastric juice secretion, Variation %
[7] = 24 hours before pilorus tieing, read-out: Total acidity gastric juice secretion, Variation %
[8] = 24 hours before pilorus tieing, read-out: Volume gastric juice secretion, Variation %
[9] = 36 hours before pilorus tieing, read-out: Total acidity gastric juice secretion, Variation %
[10] = 36 hours before pilorus tieing, read-out: Volume gastric juice secretion, Variation %
[11] = per os, 1 hour before pilorus tieing

| SMILES | reduction of gastric acid secretion (in words) (gastric acid secretion) | inhibition at 10 µM (histamine H2 receptors [2]; histamine 1·10^-5 M/L) [%] | inhibition at 10 µM (histamine H2 receptors [2]; histamine 1·10^-6 M/L) [%] | inhibition at 10 µM (histamine H2 receptors [2]; histamine 2,5·10^-7 M/L) [%] | inhibition at 10 µM (histamine H2 receptors [2]; histamine 5·10^-6 M/L) [%] | inhibition at 10 µM (histamine H2 receptors [2]; histamine 5·10^-7 M/L) [%] | inhibition at 1 µM (histamine H2 receptors [2]; histamine 1·10^-5 M/L) [%] | inhibition at 1 µM (histamine H2 receptors [2]; histamine 1·10^-6 M/L) [%] | inhibition at 1 µM (histamine H2 receptors [2]; histamine 2,5·10^-7 M/L) [%] | inhibition at 1 µM (histamine H2 receptors [2]; histamine 5·10^-6 M/L) [%] | inhibition at 1 µM (histamine H2 receptors [2]; histamine 5·10^-7 M/L) [%] | inhibition at 0.1 µM (histamine H2 receptors [2]; histamine 1·10^-5 M/L) [%] | inhibition at 0.1 µM (histamine H2 receptors [2]; histamine 1·10^-6 M/L) [%] | inhibition at 0.1 µM (histamine H2 receptors [2]; histamine 2,5·10^-7 M/L) [%] | inhibition at 0.1 µM (histamine H2 receptors [2]; histamine 5·10^-6 M/L) [%] | inhibition at 0.1 µM (histamine H2 receptors [2]; histamine 5·10^-7 M/L) [%] | LD50 at 360 h (in vivo) [mg/kg] | LD50 (in vivo) [mg/kg] | Total acidity gastric juice secretion (gastric secretion; 6 hours before pilorus tieing) | Volume gastric juice secretion (gastric secretion; 6 hours before pilorus tieing) | also measured |
| --- | --- | --- | --- | --- | --- | --- | --- | --- | --- | --- | --- | --- | --- | --- | --- | --- | --- | --- | --- | --- | --- |
| CNC(=S)NCCCCc1cnc[nH]1 [Burimamide] | effective to reduce the gastric acid secretion |  |  |  |  |  |  |  |  |  |  |  |  |  |  |  |  |  |  |  |  |
| C/N=C(\S)NCCSCc1[nH]cnc1C [Metiamide] | effective to reduce the gastric acid secretion |  |  |  |  |  |  |  |  |  |  |  |  |  |  |  |  |  |  |  |  |
| CN/C(=N/CCSCc1nc[nH]c1C)NC#N [Cimetidine, reference compound] | effective to reduce the gastric acid secretion | 28 | 100 | 100 | 50 | 100 | 10 | 90 | 100 | 40 | 90 | 0 | 45 | 80 | 22 | 80 |  |  |  |  | ED50 (gastric secretion): 30 mg/kg; antagonism of histamine induced increase of contraction frequency of the insulated atrium (in words) (histamine H2 receptors [1]): competitively antagonize |
| CN(C)Cc1ccc(CSCCNc2nc(C=Cc3ccccc3)cs2)o1 [Example No. 4, 2-(2-(((5-(dimethylamino)methyl-2-furanyl)methyl)thio)ethyl)amino-4-styryl-thiazole] |  | 93 | 100 | 100 | 100 | 100 | 38 | 70 | 100 | 60 | 100 | 20 | 45 | 90 | 35 | 70 | 2900 | 3000 | 0,09 mEq/4 hours | 3,9 ml/4 hours | Total acidity gastric juice secretion (gastric secretion; 12 hours before pilorus tieing): 0,08 mEq/4 hours; Volume gastric juice secretion (gastric secretion; 12 hours before pilorus tieing): 4,0 ml/4 hours; Total acidity gastric juice secretion (gastric secretion; 24 hours before pilorus tieing): 0,14 mEq/4 hours; Volume gastric juice secretion (gastric secretion; 24 hours before pilorus tieing): 4,9 ml/4 hours; Total acidity gastric juice secretion (gastric secretion; 36 hours before pilorus tieing): 0,14 mEq/4 hours; Volume gastric juice secretion (gastric secretion; 36 hours before pilorus tieing): 5,3 ml/4 hours; change in vivo at 20 mg/kg (gastric secretion; [3]): -47%; change in vivo at 20 mg/kg (gastric secretion; [4]): -26%; change in vivo at 20 mg/kg (gastric secretion; [5]): -47%; change in vivo at 20 mg/kg (gastric secretion; [6]): -21%; change in vivo at 20 mg/kg (gastric secretion; [7]): -18%; change in vivo at 20 mg/kg (gastric secretion; [8]): -13%; change in vivo at 20 mg/kg (gastric secretion; [9]): -12%; change in vivo at 20 mg/kg (gastric secretion; [10]): -5%; ED50 (gastric secretion; [11]): 3.2 mg/kg; ability to reduce the gastric acid secretion (in words) (gastric secretion): interesting ability; antagonistic action to the histamine H2 receptors (in words) (histamine H2 receptors [2]): interesting ability |
| CN(C)Cc1ccc(CSCCNc2nc(-c3ccc(Oc4ccccc4)cc3)cs2)o1 [Example No. 13, 2-(2-(((5-(dimethylamino)methyl-2-furanyl)methyl)thio)ethyl)amino-4-(4-phenoxy)phenyl-thiazole] |  | 90 | 95 | 100 | 90 | 100 | 38 | 80 | 90 | 65 | 90 | 40 | 50 | 90 | 30 | 70 | 3000 | > 3000 | 0,09 mEq/4 hours | 3,9 ml/4 hours | Total acidity gastric juice secretion (gastric secretion; 12 hours before pilorus tieing): 0,09 mEq/4 hours; Volume gastric juice secretion (gastric secretion; 12 hours before pilorus tieing): 3,9 ml/4 hours; Total acidity gastric juice secretion (gastric secretion; 24 hours before pilorus tieing): 0,13 mEq/4 hours; Volume gastric juice secretion (gastric secretion; 24 hours before pilorus tieing): 4,7 ml/4 hours; Total acidity gastric juice secretion (gastric secretion; 36 hours before pilorus tieing): 0,15 mEq/4 hours; Volume gastric juice secretion (gastric secretion; 36 hours before pilorus tieing): 5,1 ml/4 hours; change in vivo at 20 mg/kg (gastric secretion; [3]): -47%; change in vivo at 20 mg/kg (gastric secretion; [4]): -26%; change in vivo at 20 mg/kg (gastric secretion; [5]): -40%; change in vivo at 20 mg/kg (gastric secretion; [6]): -23%; change in vivo at 20 mg/kg (gastric secretion; [7]): -23%; change in vivo at 20 mg/kg (gastric secretion; [8]): -16%; change in vivo at 20 mg/kg (gastric secretion; [9]): -6%; change in vivo at 20 mg/kg (gastric secretion; [10]): -9%; ED50 (gastric secretion; [11]): 2.6 mg/kg; ability to reduce the gastric acid secretion (in words) (gastric secretion): interesting ability; antagonistic action to the histamine H2 receptors (in words) (histamine H2 receptors [2]): interesting ability |
| CN(C)Cc1ccc(CSCCNc2nc(-c3ccc(-c4ccccc4)cc3)cs2)o1 [Example No. 5, 2-(2-(((5-(dimethylamino)methyl-2-furanyl)methyl)thio)ethyl)amino-4-(4-biphenyl)-thiazole] |  | 100 | 100 | 100 | 100 | 100 | 45 | 70 | 100 | 60 | 90 | 25 | 65 | 95 | 40 | 85 | 2300 | 3300 | 0,08 mEq/4 hours | 3,7 ml/4 hours | Total acidity gastric juice secretion (gastric secretion; 12 hours before pilorus tieing): 0,08 mEq/4 hours; Volume gastric juice secretion (gastric secretion; 12 hours before pilorus tieing): 3,8 ml/4 hours; Total acidity gastric juice secretion (gastric secretion; 24 hours before pilorus tieing): 0,13 mEq/4 hours; Volume gastric juice secretion (gastric secretion; 24 hours before pilorus tieing): 4,9 ml/4 hours; Total acidity gastric juice secretion (gastric secretion; 36 hours before pilorus tieing): 0,13 mEq/4 hours; Volume gastric juice secretion (gastric secretion; 36 hours before pilorus tieing): 4,4 ml/4 hours; change in vivo at 20 mg/kg (gastric secretion; [3]): -53%; change in vivo at 20 mg/kg (gastric secretion; [4]): -30%; change in vivo at 20 mg/kg (gastric secretion; [5]): -47%; change in vivo at 20 mg/kg (gastric secretion; [6]): -25%; change in vivo at 20 mg/kg (gastric secretion; [7]): -23%; change in vivo at 20 mg/kg (gastric secretion; [8]): -13%; change in vivo at 20 mg/kg (gastric secretion; [9]): -19%; change in vivo at 20 mg/kg (gastric secretion; [10]): -21%; ED50 (gastric secretion; [11]): 1.6 mg/kg; ability to reduce the gastric acid secretion (in words) (gastric secretion): interesting ability; antagonistic action to the histamine H2 receptors (in words) (histamine H2 receptors [2]): interesting ability |

From patent publication US4652575A, “2-(ethylene-thio methyl furanyl)amino thiazole derivatives having acid secretion inhibiting activity” (Medosan Industrie Biochimiche Riunite S.p.A., priority 1984, dated 1987)
